In patent publication US10442778B2, “N1-phenylpropane-1,2-diamine compounds with selective activity in voltage-gated sodium channels” (Merck Sharp & Dohme Corp., priority 2016, dated 2019):

Key:
[1] = target: T1, human Nav1.5 channels stably expressed in HEK 293 cells (Homo sapiens, UniProt Q14524); assay: IonWorks Quattro automated patch-clamp, inactivated state block of Nav1.5 (selectivity); type: cell-based; conditions: IonWorks measurement, both channels in HEK 293 cells
T1 construct: expressed in transfected cells; host or cells: HEK 293
Protocol: (§1) Compounds were tested on human Nav1.7 and Nav1.5 channels stably expressed in HEK 293 cells. […] Cells were sealed on a planar substrate using the Population Patch Plate (PPC) technology. Electrical access was obtained using both nystatin and amphotericin. A double-pulse protocol was used for the determination of IC50 values for inactivated state block. Nav1.7 and Nav1.5 expressing cells were voltage clamped at −100 mV and −110 mV, respectively. A depolarizing prepulse to −10 mV (Nav1.7) or −30 mV (Nav1.5) for 1000 ms followed by a 10 ms repolarization to −100 mV (Nav1.7) or −110 mV (Nav1.5) was given to generate fractional channel inactivation of ˜50%, followed by a 10 ms test pulse to −10 mV (Nav1.7) or −30 mV (Nav1.5) to measure peak current in control conditions and after compound addition. The following recording solutions were used (mM). External: 150 NaCl, 2 CaCl2, 5 KCl, 1 Mg Cl2, 10 HEPES, 12 Dextrose; internal: 120 CsF, 30 CsCl, 10 EGTA, 5 HEPES, 5 NaF, 2 MgCl2.
(§2) For all electrophysiology experiments, offline analysis was used to determine percent inhibition as a function of drug concentration. IC50 values were determined by fitting to the Hill equation.

[2] = target: T2, human Nav1.7 channels stably expressed in HEK 293 cells (Homo sapiens, UniProt Q15858); assay: IonWorks Quattro automated patch-clamp, inactivated state block of Nav1.7; type: cell-based; conditions: double-pulse protocol, read-out: potency for the Nav 1.7 sodium ion channel (as measured by IonWorks)
T2 construct: expressed in transfected cells; host or cells: HEK 293
Protocol: as §1, §2

T1 sequence (Q14524 whole entry): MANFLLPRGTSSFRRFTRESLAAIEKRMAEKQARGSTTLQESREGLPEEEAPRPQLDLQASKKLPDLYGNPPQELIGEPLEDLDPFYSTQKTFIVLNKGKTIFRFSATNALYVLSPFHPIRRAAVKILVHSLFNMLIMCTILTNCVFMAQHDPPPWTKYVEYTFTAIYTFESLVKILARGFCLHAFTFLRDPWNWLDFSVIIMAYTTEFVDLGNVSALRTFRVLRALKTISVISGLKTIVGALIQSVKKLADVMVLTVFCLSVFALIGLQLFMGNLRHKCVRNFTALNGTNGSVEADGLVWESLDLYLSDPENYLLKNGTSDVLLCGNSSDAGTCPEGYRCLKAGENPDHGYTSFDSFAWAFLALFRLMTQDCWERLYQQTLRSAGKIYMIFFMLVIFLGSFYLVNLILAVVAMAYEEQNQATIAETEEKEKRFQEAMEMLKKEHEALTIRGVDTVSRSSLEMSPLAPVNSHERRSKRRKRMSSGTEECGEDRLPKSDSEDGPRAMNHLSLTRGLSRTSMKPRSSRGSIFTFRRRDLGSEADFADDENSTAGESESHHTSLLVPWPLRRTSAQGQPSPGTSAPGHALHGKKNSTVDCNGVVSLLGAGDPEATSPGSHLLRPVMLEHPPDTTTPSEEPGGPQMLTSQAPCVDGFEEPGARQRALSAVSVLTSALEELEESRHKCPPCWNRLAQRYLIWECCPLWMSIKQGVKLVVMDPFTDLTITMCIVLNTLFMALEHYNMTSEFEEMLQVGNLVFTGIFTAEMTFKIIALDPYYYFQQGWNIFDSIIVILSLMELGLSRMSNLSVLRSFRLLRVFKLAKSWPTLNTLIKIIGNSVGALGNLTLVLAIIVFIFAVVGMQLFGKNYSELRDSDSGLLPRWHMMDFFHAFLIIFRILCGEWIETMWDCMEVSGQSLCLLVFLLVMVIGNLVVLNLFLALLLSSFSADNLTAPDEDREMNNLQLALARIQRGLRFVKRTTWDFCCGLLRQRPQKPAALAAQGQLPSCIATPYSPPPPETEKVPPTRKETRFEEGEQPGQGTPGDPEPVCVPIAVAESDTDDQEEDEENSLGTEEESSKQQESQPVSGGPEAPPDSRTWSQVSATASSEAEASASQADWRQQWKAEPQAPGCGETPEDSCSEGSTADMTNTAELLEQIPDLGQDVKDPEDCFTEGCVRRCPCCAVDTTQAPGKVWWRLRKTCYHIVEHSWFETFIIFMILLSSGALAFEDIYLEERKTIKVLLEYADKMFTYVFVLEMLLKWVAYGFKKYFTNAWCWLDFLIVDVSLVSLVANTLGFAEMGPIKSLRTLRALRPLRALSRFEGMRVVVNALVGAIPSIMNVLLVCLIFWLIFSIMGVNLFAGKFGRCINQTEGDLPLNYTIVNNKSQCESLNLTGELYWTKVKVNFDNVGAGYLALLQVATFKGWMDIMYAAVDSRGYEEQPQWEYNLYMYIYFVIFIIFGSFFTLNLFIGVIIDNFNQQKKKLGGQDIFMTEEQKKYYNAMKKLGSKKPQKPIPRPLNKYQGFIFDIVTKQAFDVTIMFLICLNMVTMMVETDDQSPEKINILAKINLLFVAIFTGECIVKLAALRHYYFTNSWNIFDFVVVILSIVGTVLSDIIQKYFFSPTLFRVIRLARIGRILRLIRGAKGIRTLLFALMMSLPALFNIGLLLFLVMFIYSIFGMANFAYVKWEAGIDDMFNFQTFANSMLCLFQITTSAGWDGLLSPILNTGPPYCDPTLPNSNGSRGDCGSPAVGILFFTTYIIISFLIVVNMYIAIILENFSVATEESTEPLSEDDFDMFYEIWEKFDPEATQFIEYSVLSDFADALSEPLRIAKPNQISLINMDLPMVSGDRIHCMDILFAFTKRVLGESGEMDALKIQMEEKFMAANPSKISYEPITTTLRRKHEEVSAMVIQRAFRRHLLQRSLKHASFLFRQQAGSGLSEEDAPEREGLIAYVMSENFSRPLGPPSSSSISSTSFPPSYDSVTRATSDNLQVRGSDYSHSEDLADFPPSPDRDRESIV
T2 sequence (Q15858 whole entry): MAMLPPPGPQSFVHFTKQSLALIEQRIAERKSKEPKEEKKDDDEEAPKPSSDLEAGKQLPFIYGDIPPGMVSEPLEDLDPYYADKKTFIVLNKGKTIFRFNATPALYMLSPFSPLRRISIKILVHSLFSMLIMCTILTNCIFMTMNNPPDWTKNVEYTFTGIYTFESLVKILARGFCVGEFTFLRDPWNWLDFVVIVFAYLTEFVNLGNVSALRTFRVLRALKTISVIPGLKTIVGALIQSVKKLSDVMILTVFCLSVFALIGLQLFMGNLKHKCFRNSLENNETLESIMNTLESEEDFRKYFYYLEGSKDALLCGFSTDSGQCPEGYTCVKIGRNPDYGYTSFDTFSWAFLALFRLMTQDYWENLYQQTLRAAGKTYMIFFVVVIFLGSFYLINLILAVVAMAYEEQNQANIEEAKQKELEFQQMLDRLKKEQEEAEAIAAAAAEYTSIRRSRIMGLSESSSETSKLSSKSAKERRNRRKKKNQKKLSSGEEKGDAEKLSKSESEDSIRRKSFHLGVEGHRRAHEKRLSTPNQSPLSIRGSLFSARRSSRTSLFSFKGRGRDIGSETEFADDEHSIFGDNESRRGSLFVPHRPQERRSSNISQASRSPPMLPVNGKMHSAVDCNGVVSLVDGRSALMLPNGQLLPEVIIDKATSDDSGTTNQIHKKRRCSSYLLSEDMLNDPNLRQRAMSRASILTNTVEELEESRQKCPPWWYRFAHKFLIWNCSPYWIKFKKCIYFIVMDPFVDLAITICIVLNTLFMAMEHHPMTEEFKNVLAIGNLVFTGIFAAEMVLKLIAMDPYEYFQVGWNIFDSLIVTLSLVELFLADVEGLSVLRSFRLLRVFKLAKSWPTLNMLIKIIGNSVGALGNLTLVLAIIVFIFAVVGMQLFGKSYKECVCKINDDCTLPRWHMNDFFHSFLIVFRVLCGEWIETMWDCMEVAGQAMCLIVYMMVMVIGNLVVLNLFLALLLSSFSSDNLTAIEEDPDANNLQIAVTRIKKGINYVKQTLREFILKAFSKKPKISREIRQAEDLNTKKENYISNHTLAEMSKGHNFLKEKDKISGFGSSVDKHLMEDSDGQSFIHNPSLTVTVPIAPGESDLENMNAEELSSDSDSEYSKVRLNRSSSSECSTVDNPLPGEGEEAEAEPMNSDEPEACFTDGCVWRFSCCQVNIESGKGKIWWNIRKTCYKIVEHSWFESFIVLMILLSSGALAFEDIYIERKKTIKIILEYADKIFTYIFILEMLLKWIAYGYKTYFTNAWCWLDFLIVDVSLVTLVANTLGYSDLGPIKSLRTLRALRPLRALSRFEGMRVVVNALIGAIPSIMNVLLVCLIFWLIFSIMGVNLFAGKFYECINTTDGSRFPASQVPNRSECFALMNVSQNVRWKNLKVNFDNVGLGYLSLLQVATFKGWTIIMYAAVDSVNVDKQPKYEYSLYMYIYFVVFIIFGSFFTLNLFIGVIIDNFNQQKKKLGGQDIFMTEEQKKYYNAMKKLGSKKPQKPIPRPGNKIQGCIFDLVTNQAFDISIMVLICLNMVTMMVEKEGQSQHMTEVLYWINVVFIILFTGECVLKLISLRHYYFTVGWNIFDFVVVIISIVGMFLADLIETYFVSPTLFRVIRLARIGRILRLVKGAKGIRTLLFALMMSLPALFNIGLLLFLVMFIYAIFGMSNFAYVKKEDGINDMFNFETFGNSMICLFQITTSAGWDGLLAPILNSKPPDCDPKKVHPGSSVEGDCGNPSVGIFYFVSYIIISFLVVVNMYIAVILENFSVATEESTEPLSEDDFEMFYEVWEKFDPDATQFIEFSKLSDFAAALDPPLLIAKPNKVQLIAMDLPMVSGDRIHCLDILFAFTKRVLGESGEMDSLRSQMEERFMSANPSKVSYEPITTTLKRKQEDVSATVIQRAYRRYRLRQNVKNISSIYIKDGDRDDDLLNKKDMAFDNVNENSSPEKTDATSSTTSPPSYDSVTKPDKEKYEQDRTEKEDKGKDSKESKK

CCCC[C@@H](CNc1cc(F)c(S(=O)(=O)Nc2ncc(F)s2)cc1Cl)NCCC [Ex7-5, (S)-5-chloro-2-fluoro-N-(5-fluorothiazol-2-yl)-4-((2-(propylainino)hexyl)amino) benzenesulfonamide]
ratio of Nav1.7 potency:Nav 1.5 potency [1]: > 805 | IC50 [2]: 41 nM

CCCC[C@@H](CNc1cc(F)c(S(=O)(=O)Nc2ncc(F)s2)cc1Cl)NC(C)C [Ex7-6, (S)-5-chloro-2-fluoro-N-(5-fluorothiazol-2-yl)-4-((2-(isopropylamino)hexyl)amino) benzenesulfonamide]
ratio of Nav1.7 potency:Nav 1.5 potency [1]: > 533 | IC50 [2]: 30 nM
